Legend:
F508delCFTR [1] = target: T1, F508delCFTR (Homo sapiens, UniProt P13569, DEL508-508); assay: Cell Surface Expression-Horse Radish Peroxidase (CSE-HRP) assay, test compound with co-corrector; type: cell-based; conditions: with 2 μM co-corrector; for Maximum % activity (with co-corrector): maximum at any tested concentration, normalized to positive control;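 on Maximum % activity (with co-corrector): percent of 2 µM positive control corrector over DMSO; co-corrector is that same compound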
T1 construct: expressed in transfected cells; host or cells: CFBE41o- human lung-derived epithelial cells (CFBE41o-F508delCFTR-HRP), doxycycline-inducible
In short: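 CFBE41o- cells expressing F508delCFTR with HRP in the fourth exofacial loop, induced with 0.5 μg/mL doxycycline for 72 h, then treated 18-24 h at 33° C. with compound (8 points, top 20 μM, 3-fold) plus 2 μM co-corrector. Surface HRP read by luminol luminescence; activity normalised to positive control, EC50 from variable-slope sigmoidal fit.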

F508delCFTR [2] = target: T1, F508delCFTR; assay: Cell Surface Expression-Horse Radish Peroxidase (CSE-HRP) assay, test compound without co-corrector; type: cell-based; conditions: for Emax: maximum at any tested concentration, normalized to positive control, without co-corrector; for EC50: test compound without co-corrector;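 on Emax: percent of on-plate 2 µM positive control corrector response over DMSO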
In short: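 CFBE41o- cells expressing F508delCFTR with HRP in the fourth exofacial loop, induced with 0.5 μg/mL doxycycline for 72 h at 37° C, then exposed to compound alone for 18-24 h at 33° C, 8-point 3-fold series from 20 μM. Surface HRP read by luminol luminescence, normalized to positive corrector control versus DMSO; EC50 from variable-slope sigmoidal fit of three replicate plates.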

T1 sequence (P13569 with tags, fused parts or gaps DEL508-508): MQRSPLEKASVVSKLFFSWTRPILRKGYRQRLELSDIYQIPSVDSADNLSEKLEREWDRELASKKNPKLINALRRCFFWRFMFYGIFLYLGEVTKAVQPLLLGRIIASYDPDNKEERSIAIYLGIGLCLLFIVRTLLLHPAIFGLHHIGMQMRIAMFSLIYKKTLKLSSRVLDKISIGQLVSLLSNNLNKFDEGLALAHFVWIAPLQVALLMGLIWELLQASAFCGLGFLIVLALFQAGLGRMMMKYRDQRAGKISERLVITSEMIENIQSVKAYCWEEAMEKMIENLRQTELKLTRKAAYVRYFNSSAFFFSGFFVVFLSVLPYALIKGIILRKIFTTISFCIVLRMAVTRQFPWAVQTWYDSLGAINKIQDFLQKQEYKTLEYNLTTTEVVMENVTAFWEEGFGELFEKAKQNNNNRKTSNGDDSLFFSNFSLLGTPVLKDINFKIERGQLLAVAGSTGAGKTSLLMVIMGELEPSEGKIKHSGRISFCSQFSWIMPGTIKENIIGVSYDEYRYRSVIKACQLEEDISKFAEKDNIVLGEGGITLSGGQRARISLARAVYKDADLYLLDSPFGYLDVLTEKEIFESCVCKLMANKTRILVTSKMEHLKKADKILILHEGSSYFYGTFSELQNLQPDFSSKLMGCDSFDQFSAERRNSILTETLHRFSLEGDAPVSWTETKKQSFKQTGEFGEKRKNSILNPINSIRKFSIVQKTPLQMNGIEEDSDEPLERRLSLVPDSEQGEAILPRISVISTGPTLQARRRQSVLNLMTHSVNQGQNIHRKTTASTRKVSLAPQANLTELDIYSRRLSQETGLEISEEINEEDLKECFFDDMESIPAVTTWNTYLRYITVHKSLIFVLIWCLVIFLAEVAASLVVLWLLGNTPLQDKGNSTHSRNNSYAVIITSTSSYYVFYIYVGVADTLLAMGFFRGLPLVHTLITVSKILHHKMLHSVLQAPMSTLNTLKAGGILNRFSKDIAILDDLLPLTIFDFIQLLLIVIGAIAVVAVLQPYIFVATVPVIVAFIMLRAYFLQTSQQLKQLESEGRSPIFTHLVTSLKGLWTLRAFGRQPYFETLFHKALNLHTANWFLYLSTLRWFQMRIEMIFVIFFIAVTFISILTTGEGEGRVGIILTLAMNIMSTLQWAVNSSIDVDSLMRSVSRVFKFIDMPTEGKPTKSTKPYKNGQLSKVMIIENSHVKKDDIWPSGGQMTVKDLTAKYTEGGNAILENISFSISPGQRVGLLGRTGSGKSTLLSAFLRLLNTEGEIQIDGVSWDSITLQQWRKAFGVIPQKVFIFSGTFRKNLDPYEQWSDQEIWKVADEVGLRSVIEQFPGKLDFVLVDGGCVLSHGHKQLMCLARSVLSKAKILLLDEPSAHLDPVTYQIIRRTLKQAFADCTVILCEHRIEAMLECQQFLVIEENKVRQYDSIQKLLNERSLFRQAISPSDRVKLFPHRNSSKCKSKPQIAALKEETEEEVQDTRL

| Structure (SMILES) | Maximum % activity (with co-corrector) (F508delCFTR [1]) | EC50 (F508delCFTR [1]) [µM] | Emax (F508delCFTR [2]) [%] | EC50 (F508delCFTR [2]) [µM] |
| --- | --- | --- | --- | --- |
| CC1(C(=O)NS(=O)(=O)Cc2ccccc2)CCc2c(Cl)cccc21 (centres unmarked) [III-3] | + (<150) | ≥ 10 | < 50 | ≥ 10 |
| Cc1nn(C)c(C)c1S(=O)(=O)NC(=O)C1CCc2c(Cl)cccc21 (centres unmarked) [III-4] | + (<150) | ≥ 10 | < 50 | ≥ 10 |
| COCCS(=O)(=O)NC(=O)C1CCc2c(Cl)cccc21 (centres unmarked) [III-5] | + (<150) | ≥ 10 | < 50 | ≥ 10 |
| CCCS(=O)(=O)NC(=O)C1CCc2c(Cl)cccc21 (centres unmarked) [III-6] | + (<150) | ≥ 10 | < 50 | ≥ 10 |
| COc1ccc2c(c1)CCC2C(=O)NS(=O)(=O)c1ccccc1C (centres unmarked) [III-9] | + (<150) | ≥ 10 | < 50 | ≥ 10 |
| Cc1ccccc1S(=O)(=O)NC(=O)C1CCc2ccccc2C1 (centres unmarked) [III-10] | + (<150) | ≥ 10 | < 50 | ≥ 10 |
| COc1cccc2c1CCC2C(=O)NS(=O)(=O)c1c(C)nn(C)c1C (centres unmarked) [III-11] | + (<150) | ≥ 10 | < 50 | ≥ 10 |
| COc1ccccc1S(=O)(=O)NC(=O)C1CCc2c(OC)cccc21 (centres unmarked) [III-12] | + (<150) | 3 to 10 | < 50 | ≥ 10 |
| COc1cccc2c1CCC2C(=O)NS(=O)(=O)c1ccc(C)cn1 (centres unmarked) [III-13] | + (<150) | ≥ 10 | < 50 | ≥ 10 |
| COc1cccc2c1CCC2C(=O)NS(=O)(=O)C1CCOCC1 (centres unmarked) [III-14] | + (<150) | ≥ 10 | < 50 | ≥ 10 |
| COCCCS(=O)(=O)NC(=O)C1CCc2c(OC)cccc21 (centres unmarked) [III-15] | + (<150) | ≥ 10 | < 50 | ≥ 10 |
| COCCS(=O)(=O)NC(=O)C1CCc2c(OC)cccc21 (centres unmarked) [III-16] | + (<150) | ≥ 10 | < 50 | ≥ 10 |
| CCCS(=O)(=O)NC(=O)C1CCc2c(OC)cccc21 (centres unmarked) [III-17] | + (<150) | ≥ 10 | < 50 | ≥ 10 |
| COc1ccccc1S(=O)(=O)NC(=O)C1CCc2c(Cl)cccc21 (centres unmarked) [III-18] | + (<150) | ≥ 10 | < 50 | ≥ 10 |

Second part, the molecule after the results:

| Maximum % activity (with co-corrector) (F508delCFTR [1]) | EC50 (F508delCFTR [1]) [µM] | Emax (F508delCFTR [2]) [%] | EC50 (F508delCFTR [2]) [µM] | Structure (SMILES) |
| --- | --- | --- | --- | --- |
| +++ (≥350) | < 3 | ≥ 150 | < 3 | COc1ccc(Br)c2c1C(C(=O)NS(=O)(=O)c1cccc3nc(C(C)C)ccc13)CC2 (centres unmarked) [II-132] |
| +++ (≥350) | 3 to 10 | ≥ 150 | 3 to 10 | COc1ccc(Br)c2c1C(C(=O)NS(=O)(=O)c1cccc3c(OC)cccc13)CC2 (centres unmarked) [II-133] |
| +++ (≥350) | < 3 | ≥ 150 | 3 to 10 | COC(=O)c1ccc(OC)c2c1CCC2C(=O)NS(=O)(=O)c1cccc2ccccc12 (centres unmarked) [II-134] |
| +++ (≥350) | 3 to 10 | ≥ 150 | 3 to 10 | COC(=O)c1cccc2c(S(=O)(=O)NC(=O)C3CCc4c(Br)ccc(OC)c43)cccc12 (centres unmarked) [II-135] |
| +++ (≥350) | 3 to 10 | ≥ 150 | 3 to 10 | O=C(NS(=O)(=O)c1cccc2ccccc12)C1CCCc2c(Cl)ccc(OCCN3CCOCC3)c21 (centres unmarked) [II-136] |
| ++ (≥150 and <350) | 3 to 10 | < 50 | ≥ 10 | COc1cccc2c1CC(C(=O)NS(=O)(=O)c1ccccc1C)CC2 (centres unmarked) [III-7] |

Source: patent publication US20180244611A1, “Modulators of the Cystic Fibrosis Transmembrane Conductance Regulator Protein and Methods of Use” (AbbVie S.à.r.l., priority 2017, published 2018)
